# Measurements reported in patent EP3502102A1, “STING INHIBITORS” (ECOLE POLYTECHNIQUE FEDERALE DE LAUSANNE (EPFL), priority 2017, dated 2019).
# Experiments:
# Type in all cases: cell-based
# STING [1] = molecular target: T1, STING (Mus musculus, UniProt Q3TBT3); assay: Flag immunoprecipitation, recruitment of TBK1 to STING; design: expressed in transfected cells; host or cells: HEK293T; conditions: HEK293T expressing Flag-STING; 1 µM; CMA 2 h
# T1 sequence (Q3TBT3 1-378): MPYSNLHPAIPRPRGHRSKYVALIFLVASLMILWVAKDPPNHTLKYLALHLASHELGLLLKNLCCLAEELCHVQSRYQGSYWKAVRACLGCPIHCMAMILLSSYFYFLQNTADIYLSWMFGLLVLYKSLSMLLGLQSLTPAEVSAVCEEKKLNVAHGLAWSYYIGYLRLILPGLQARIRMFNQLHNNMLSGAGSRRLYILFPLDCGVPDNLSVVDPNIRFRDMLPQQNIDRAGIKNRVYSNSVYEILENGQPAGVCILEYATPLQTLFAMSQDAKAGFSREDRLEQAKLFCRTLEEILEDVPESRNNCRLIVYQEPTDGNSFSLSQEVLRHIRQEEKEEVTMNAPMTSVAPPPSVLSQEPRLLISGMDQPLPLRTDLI
# [2] = molecular target: T2, endogenous human transferrin receptor (Homo sapiens, UniProt P02786); assay: Metabolic labelling with [3H] palmitate, endogenous transferrin receptor; conditions: 1 µM
# T2 construct: endogenous in cells; host or cells: HEK293T
# STING [3] = molecular target: T1, STING; assay: Blue native gel assay of STING clusters; design: expressed in transfected cells; host or cells: HEK293T; conditions: C-178, C-176 1 µM, 2-BP 50 µM; CMA 1.5 h
# Procedure: Reporter activity was measured 16 h after compound treatment. A nonlinear regression analysis was performed. […] Circles indicate substitutes compared to C-176. d, e, Chemical compounds from (c) were tested at 0.5 µM for inhibitory activity in HEK293T cells transfected with STING (e) or RIG-I (f) in conjunction with IFN-• luciferase reporter, respectively. b, e, f, Values of inhibitor-treated cells were normalized to DMSO-treated cells. […] Cytokine levels were normalized to DMSO-treated control cells. A nonlinear regression analysis was performed for cGAMP stimulation. b, c, BMDMs were pre-treated with C-178 (0.25 µM) and stimulated with cGAMP, cyclic di-GMP, CMA, 90mer dsDNA or LPS for 3 h. The induction of Ifnb1 mRNA levels was assessed by RT-qPCR. d, Heatmaps of RNA sequencing analysis of BMDMs treated with DMSO or CMA and with or without addition of C-178. […] Reporter activity was measured 16 h after transfection and values were normalized to DMSO-treated control cells. c, BMDMs were treated with C-178 (0.25 µM) for 1 h, washed or left untreated and after an additional hour stimulated with cGAMP. […] Flag-STING was immunoprecipitated from whole cell lysate and analysed by autoradiography. In parallel, cell lysates were analysed by immunoblotting for p-TBK1 and STING. d, HEK293T cells expressing STING were treated as indicated (C-178 (1 µM)) and stimulated with CMA for 1.5 h. […]
# STING [4] = molecular target: T1, STING; assay: High-throughput screen and secondary screen in HEK293T cells expressing mCherry-STING, cdG-Syn versus RIG-I; design: expressed in transfected cells; host or cells: HEK293T; conditions: primary screen and counter-screen; library compounds 10 µM
# Procedure: Reporter activity was measured 16 h after compound treatment. A nonlinear regression analysis was performed. […] Circles indicate substitutes compared to C-176. d, e, Chemical compounds from ([…]) in conjunction with IFN-• luciferase reporter, respectively. b, e, f, Values of inhibitor-treated cells were normalized to DMSO-treated cells. […] Cytokine levels were normalized to DMSO-treated control cells. A nonlinear regression analysis was performed for cGAMP stimulation. b, c, BMDMs were pre-treated with C-178 (0.25 µM) and stimulated with cGAMP, cyclic di-GMP, CMA, 90mer dsDNA or LPS for 3 h. The induction of Ifnb1 mRNA levels was assessed by RT-qPCR. d, Heatmaps of RNA sequencing analysis of BMDMs treated with DMSO or CMA and with or without addition of C-178. […] Reporter activity was measured 16 h after transfection and values were normalized to DMSO-treated control cells. c, BMDMs were treated with C-178 (0.25 µM) for 1 h, washed or left untreated and after an additional hour stimulated with cGAMP. […] Flag-STING was immunoprecipitated from whole cell lysate and analysed by autoradiography. In parallel, cell lysates were analysed by immunoblotting for p-TBK1 and STING. d, HEK293T cells expressing STING were treated as indicated (C-178 (1 µM)) and stimulated with CMA for 1.5 h. […] Depicted genes were measured by RT-qPCR.
# T2 sequence (P02786 whole entry): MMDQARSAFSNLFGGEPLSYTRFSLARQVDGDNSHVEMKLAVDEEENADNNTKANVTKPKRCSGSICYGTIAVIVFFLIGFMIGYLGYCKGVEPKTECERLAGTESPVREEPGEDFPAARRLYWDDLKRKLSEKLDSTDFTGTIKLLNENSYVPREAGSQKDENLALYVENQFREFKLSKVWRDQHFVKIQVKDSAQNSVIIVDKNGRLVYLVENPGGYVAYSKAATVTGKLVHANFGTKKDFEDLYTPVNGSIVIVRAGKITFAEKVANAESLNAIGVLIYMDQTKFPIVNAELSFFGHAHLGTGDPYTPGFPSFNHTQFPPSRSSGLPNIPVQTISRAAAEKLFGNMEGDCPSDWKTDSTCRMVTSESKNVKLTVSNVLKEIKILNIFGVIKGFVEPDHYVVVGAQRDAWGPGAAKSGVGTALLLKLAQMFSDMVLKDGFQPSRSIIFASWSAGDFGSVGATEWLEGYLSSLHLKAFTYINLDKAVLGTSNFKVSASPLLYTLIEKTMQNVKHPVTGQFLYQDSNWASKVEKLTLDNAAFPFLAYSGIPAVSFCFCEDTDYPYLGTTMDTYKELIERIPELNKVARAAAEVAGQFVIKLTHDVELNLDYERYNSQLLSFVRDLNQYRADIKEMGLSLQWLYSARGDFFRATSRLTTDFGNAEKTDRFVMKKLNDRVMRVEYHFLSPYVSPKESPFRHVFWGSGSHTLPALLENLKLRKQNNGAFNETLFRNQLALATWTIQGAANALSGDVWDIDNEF
structure (smiles),measurement,setting,value
"O=C(Nc1ccc(I)cc1)c1ccc([N+](=O)[O-])o1 [C-176, N-(4-iodophenyl)-5-nitro-2-furamide]",recruitment of TBK1,STING [1],block
same,[^3H] palmitate labelling of the endogenous transferrin receptor,[2],neither C-178 nor C-176 affected
same,assembly of STING clusters,STING [3],blocked
same,IFN signal in response to cdG-Syn/STING versus RIG-I,STING [4],selectively reduced the IFN signal in response to cdG-Syn/STING but not to RIG-I
